Source: patent publication US20030199540A1, “Fluoroalkyoxybenzylamino derivatives of nitrogen containing heterocycles” (priority 1991, published 2003)

Compound | melting point
Cl.FC(F)Oc1ccc(OC(F)F)c(CN[C@H]2CCCN[C@H]2c2ccccc2)c1 | 238 to 239 °C
CC(C)(C)c1ccc(OC(F)F)c(CN[C@H]2CCCN[C@H]2c2ccccc2)c1.Cl | 263 to 264 °C (dec.)
CC(C)c1ccc(OC(F)F)c(CN[C@H]2CCCN[C@H]2c2ccccc2)c1.Cl | 245 to 247 °C (dec.)
CC(=O)Nc1ccc(OCC(F)(F)F)c(CN[C@H]2CCCN[C@H]2c2ccccc2)c1.Cl | > 270 °C
Cc1ccc(OC(F)F)c(CN[C@H]2CCCN[C@H]2c2ccccc2)c1.Cl | > 275 °C

Now from value to molecule:

melting point | Compound
262 to 264 °C | CC(C)(C)c1ccc(OC(F)(F)F)c(CN[C@H]2CCCN[C@H]2c2ccccc2)c1.Cl
> 280 °C | CC(C)c1ccc(OCC(F)(F)F)c(CN[C@H]2CCCN[C@H]2c2ccccc2)c1.Cl
245 to 246 °C (dec.) | CC(C)Oc1ccc(OC(F)(F)F)cc1CN[C@H]1CCCN[C@H]1c1ccccc1.Cl
> 275 °C (dec.) | CCOc1ccc(OC(F)(F)F)cc1CN[C@H]1CCCN[C@H]1c1ccccc1.Cl
231 to 233 °C | Cl.FC(F)(F)Oc1ccccc1CN[C@H]1CCCN[C@H]1c1ccccc1
